{
  "source": "patent US9551722B2",
  "about": "“Amyloid binding agents” (The Regents of the University of California, priority 2009, dated 2017)",
  "key": {"[1]": {"molecular_target": "T1, pre-aggregated Aβ(1-42) peptide (Homo sapiens, UniProt P05067)", "T1 construct": "preaggregated Aβ(1-42) peptides", "T1 sequence (P05067 672-713 limits assumed)": "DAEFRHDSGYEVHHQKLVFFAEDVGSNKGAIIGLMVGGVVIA", "test": "Apparent binding constant (Kd) by double reciprocal fluorescence plot", "settings": "compound 10, 5, 2.5, 1.25 μM; 5.0 μM pre-aggregated Aβ(1-42); PBS pH 7.4", "method": "We also measured the apparent binding constants (Kd) of the compounds (in concentrations of 10, 5, 2.5 and 1.25 μM) to 5.0 μM pre-aggregated Aβ(1-42) peptide. The Kd can be measured from the double reciprocal of the fluorescent maximum and the concentration of the compound. See H. LeVine III, Protein Sci. 1993, 2:404-410. […] [22,] See LeVine, Id.; Lockhart, L. Ye, D. B. Judd, A. T. Merritt, P. N. Lowe, J. L. Morgenstern, G. Z. Hong, A. D. Gee, J. Brown, J. Biol. Chem. 2005, 280:7677-7684; M. Biancalana, K. Makabe, A. Koide, S. Koide, J. Mol. Biol. 2008, 383:205-213; M. Biancalana, K. Makabe, A. Koide, S. Koide, J. Mol. Biol. 2009, 385:1052-1063. The Kd corresponds to the −1/(x-intercept) of the linear regression.\nPre-aggregated Aβ(1-42) (5 μM final concentration) was mixed with various concentrations of compounds described herein (10, 5, 2.5, 1.25 μM) in PBS buffer (pH 7.4) and their fluorescence was measured. The negative inverse of the x-intercept of the linear regression, that was drawn between the double reciprocal of the fluorescence intensity maximum and concentration of the compound, represents the compound binding constant (Kd) to Aβ(1-42).\nIn order to quantify the dissociation constants (Kd's) for the binding of fluorescent compounds with aggregated β-amyloid peptides, we used the method described by LeVine (see H. LeVine III, Protein Sci. 1993, 2, 404-410). This method is similar to the method described by Benesi-Hildebran (see C. Yang, L. Liu, T. W. Mu, Q. X. Guo, Anal. Sci. 2000, 16, 537-539). Here, the fluorescence of the compound was measured with and without the addition of the aggregated peptides in solution. The relative fluorescence enhancement of the compound upon binding to aggregated β-amyloid peptides was determined by taking the difference between F (fluorescence after the addition of aggregated peptides) and F (fluorescence before the addition of aggregated peptides).\nIn order to estimate the binding constant (Kd) for the compound-Aβ complexes from the fluorescence studies, we made the following assumptions: • 1. All compounds are completely in solution and free of any significant competing binding process such as self-aggregation. • 2. The concentration of unbound compounds can be approximated as close to the total concentration of the compounds. • 3. The binding sites in the aggregated Aβ peptides are not completely occupied at the concentration of Aβ-binding compounds used for the fluorescence studies (i.e., the experiments are carried out under non-saturated binding conditions).\nFIG. 2 and FIG. 6 provide double reciprocal plots of the measured fluorescence versus total concentration of compound [GO]. Assuming that [G] can be approximated as close to [GO] (assumption 2), we can obtain estimates for the Kd's of the compound-Aβ complexes from the x-intercept of the linear fits of the data for each compound."}, "[2]": {"molecular_target": "T2, interaction of the aggregated Aβ peptide with a monoclonal anti-Aβ IgG (Homo sapiens, UniProt P05067)", "T2 construct": "Aggregated Aβ peptides were generated from synthetic Aβ(1-42) peptides", "T2 sequence (P05067 672-713 limits assumed)": "as above", "test": "Semi-quantitative ELISA: inhibition of IgG-Aβ fibril interactions", "type": "binding", "settings": "anti-Aβ IgG clone 6E10; for IC50: 50% inhibition of IgG-Aβ interactions; for Maximum % inhibition (ELISA): maximal percentage of IgG inhibited from binding to the fibrils", "method": "The association of the synthesized compounds with aggregated Aβ peptides was tested using a semi-quantitative ELISA based assay developed by Yang and co-workers. See P. Inbar, J. Yang, Bioorg. Med. Chem. Lett. 2006, 16:1076-1079; P. Inbar, C. Q. Li, S. A. Takayama, M. R. Bautista, J. Yang, ChemBioChem 2006, 7:1563-1566; P. Inbar, M. R. Bautista, S. A. Takayama, J. Yang, Anal. Chem. 2008, 80:3502-3506. The assay is based on screening for molecules that inhibit the interaction of the aggregated Aβ peptide with a monoclonal anti-Aβ IgG raised against residues 1-17 of Aβ. Table 4 provides the concentrations of the compounds corresponding to 50% inhibition (IC50) of the IgG-Aβ interactions as well as the maximal percentage of the IgG's inhibited from binding to the fibrils. […] The maximum inhibition, a measure of the extent of surface coating of the aggregated peptide by the compounds, was determined to be between 40-98% (Table 4). See P. Inbar, J. Yang, Bioorg. Med. Chem. Lett. 2006, 16:1076-1079; P. Inbar, C. Q. Li, S. A. Takayama, M. R. Bautista, J. Yang, ChemBioChem 2006, 7:1563-1566; P. Inbar, M. R. Bautista, S. A. Takayama, J. Yang, Anal. Chem. 2008, 80:3502-3506. […] Specifically, while the maximum inhibition is between 81-98% for the phenyl compounds, it decreases to 58% for the longer naphthalene compound 11 and to 40% for the more conjugated stilbene 19.\nAggregated Aβ peptides were generated from synthetic Aβ(1-42) peptides by dissolving 30 μg of peptide in 90 μL of nanopure water (pH 5-6) and incubating at 37° C. for ≧72 h without agitation. Each well of a 96-well plate (well volume 0.4 mL; clear, flat bottom polypropylene) was coated for 3 h at 25° C. with 50 μL of 1.3 μM solution of Aβ peptides in phosphate-buffered saline (PBS, 10 mM NaH2PO4/Na2HPO4, 138 mM NaCl, 2.7 mM KCl, pH 7.4). After removal of the excess sample, 50 μL solutions of compounds in PBS buffer (various concentrations were obtained by diluting a stock solution with PBS buffer) were incubated in the wells for 12 h. […] The excess solutions were then removed and all wells were blocked for 30 min by adding 300 μL of a 1% (w/v) solution of bovine serum albumin in PBS buffer (BSA/PBS). On occasion, an additional blocking step was performed prior to incubation with solutions of small molecules. The blocking solution was discarded and the wells were washed once with 300 μL of PBS buffer. Wells were incubated for 1 h with 50 μL of a 1.1 nM solution (in 1% BSA/PBS, dilution 1:6000) of anti-Aβ IgG (clone 6E10, monoclonal, mouse), followed by removal of the solution. The wells were washed twice with 300 μL of PBS buffer and incubated for 60 min with 50 μL of the secondary IgG (anti-mouse IgG H+L, polyclonal, rabbit) conjugated with alkaline phosphatase (6.8 nM in 1% BSA/PBS, dilution 1:1000). The solution was discarded, and the wells were washed twice with 300 μL PBS buffer. Bound secondary IgGs were detected by the addition of 50 μL of a p-nitrophenyl phosphate solution (2.7 mM, in 100 mM diethanol amine/0.5 mM magnesium chloride, pH 9.8). Absorbance intensities were determined at 405 nm using a UV-vis spectroscopic plate reader (Sprectramax 190, Molecular Devices, Sunnyvale, Calif.). Each run was performed five times and averaged. Error bars represent standard deviations. Graphs were plotted and fitted with the sigmoid curve fitting."}},
  "note": "Values joined by “and” are separate entries in the source; they are usually repeats but may differ in a detail not shown here. Equal values may be shown once.",
  "data": [
    {"smiles": "CCN(CC)c1ccc(C=C(C#N)C(=O)OCCOCCOCCOC)cc1", "note": "(stereo in doubt) [Cmpd 8c, (Z)-2-(2-(2-methoxyethoxyl)ethoxy)ethyl 2-cyano-3-(4-(diethylamino)phenyl)acrylate]", "values": [
      {"measurement": "Kd", "setting": "[1]", "result": 4.8, "unit": "µM"},
      {"measurement": "IC50", "setting": "[2]", "result": 11.4, "unit": "µM"},
      {"measurement": "Maximum % inhibition (ELISA)", "setting": "[2]", "result": 98, "unit": "%"}
    ]},
    {"smiles": "CCCCN(CCCC)c1ccc(C=C(C#N)C(=O)OCCOCCOCCOC)cc1", "note": "(stereo in doubt) [Cmpd 8d, (Z)-2-(2-(2-methoxyethoxyl)ethoxy)ethyl-2-cyano-3-(4-(dibutylamino)phenyl)acrylate]", "values": [
      {"measurement": "Kd", "setting": "[1]", "result": 4.4, "unit": "µM"},
      {"measurement": "IC50", "setting": "[2]", "result": 90.6, "unit": "µM"},
      {"measurement": "Maximum % inhibition (ELISA)", "setting": "[2]", "result": 91, "unit": "%"}
    ]},
    {"smiles": "COCCOCCOCCOC(=O)/C(C#N)=C/c1ccc(N(C)C)cc1", "note": "[Cmpd 8a, (E)-2-(2-(2-methoxyethoxyl)ethoxy)ethyl 2-cyano-3-(4-(dimethylamino)phenyl)acrylate]", "values": [
      {"measurement": "Kd", "setting": "[1]", "result": 2.6, "unit": "µM"},
      {"measurement": "IC50", "setting": "[2]", "result": 129, "unit": "µM"},
      {"measurement": "Maximum % inhibition (ELISA)", "setting": "[2]", "result": 81, "unit": "%"}
    ]},
    {"smiles": "COCCOCCOCCOC(=O)/C(C#N)=C/c1ccc(N(C)C)cc1OC", "note": "[Cmpd 8b, (E)-2-(2-(2-methoxyethoxyl)ethoxy)ethyl 2-cyano-3-(4-(dimethylamino)-2-methoxyphenyl)acrylate]", "values": [
      {"measurement": "Kd", "setting": "[1]", "result": 5.3, "unit": "µM"},
      {"measurement": "IC50", "setting": "[2]", "result": "1.17 µM and 1.2 µM"},
      {"measurement": "Maximum % inhibition (ELISA)", "setting": "[2]", "result": 92, "unit": "%"}
    ]},
    {"smiles": "COCCOCCOCCOC(=O)/C(C#N)=C/c1ccc2cc(N3CCCCC3)ccc2c1", "note": "[Cmpd 11, (E)-2-(2-(2-methoxyethoxyl)ethoxy)ethyl-2-cyano-3-(6-(piperidin-1-yl)naphthalen-2-yl)acrylate]", "values": [
      {"measurement": "Kd", "setting": "[1]", "result": 2.5, "unit": "µM"},
      {"measurement": "IC50", "setting": "[2]", "result": 74.3, "unit": "µM"},
      {"measurement": "Maximum % inhibition (ELISA)", "setting": "[2]", "result": 58, "unit": "%"}
    ]},
    {"smiles": "CN(C)c1ccc(/C=C(\\C#N)C(=O)OCC(O)CO)cc1", "note": "(stereo not drawn) [Cmpd 14, (E)-2,3-dihydroxypropyl 2-cyano-3-(4-(dimethylamino)phenyl) acrylate]", "values": [
      {"measurement": "Kd", "setting": "[1]", "result": 3.3, "unit": "µM"},
      {"measurement": "IC50", "setting": "[2]", "result": 82.1, "unit": "µM"},
      {"measurement": "Maximum % inhibition (ELISA)", "setting": "[2]", "result": 79, "unit": "%"}
    ]}
  ]
}
